Measurements taken from patent publication US20060223729A1, “Photodynamic inactivation of bacterial spores” (priority 2003, published 2006).

What was measured:
B. cereus spores = assay: Photodynamic inactivation (PDI) of B. cereus spores, colony-forming units; assay type: cell-based, B. cereus (ATCC14579); conditions: for photodynamic killing of spores: 100 mW/cm^2 appropriate wavelength light, 0 to 32 J/cm^2 (FIG. 5, FIG. 8)
Description: (§1) The bacteria studied in the following examples were B. atrophaeus (ATCC 9372), B. cereus (ATCC14579), B. thuringiensis (ATCC 33740) and B. subtilis (ATCC 6051). Growing bacterial cells were cultivated in brain-heart infusion (BHI) broth at 37° C. Aliquots of the suspension (10^8/mL) were stored at −80° C. and then used for the experiments.
(§2) For initial experiments spores of B. atrophaeus and B. cereus were purchased from SGM Biotech, Inc (Bozeman, Mont., USA). For subsequent experiments spores of all species were prepared in the laboratory using sporulation broth for B. atrophaeus and B. subtilis, or sporulation agar (Caipo et al., 2002; Nicholson & Setlow, 1990) for B. cereus and B. thuringiensis. The sporulation medium consisted of 16.0 g nutrient broth (Difco), 2.0 g KCl, 0.5 g MgSO4; 17 g of agar. The pH of the medium was adjusted to 7, then autoclaved and cooled. After cooling 1 ml of 1M […], 1 ml of 0.1 M MnCl2.4H2O, 1 ml of 1 mM FeSO4 and 2 ml 50% glucose were added. For spore purification the mixture of spores and cells was centrifuged at 1300 g for 20 min, washed with SX volume 1 M KCl/0.5 M NaCl, rinsed with sterile deionized water, then washed with 1 M NaCl, and rinsed with sterile deionized water again. Lysozyme (50 μg/mL) was added in the presence of buffer (5× volume Tris Cl, 0.05 M, pH 7 2), and incubated with constant stirring at 4° C. overnight. Lysozyme was removed by centrifuging 8 times (at 1300 g) and washing with sterile deionized water. Spores were frozen with 10% glycerol and stored until use. To avoid germination spores were used immediately after defrosting.
(§3) As photosensitizers Rose Bengal, Toluidine Blue O (TBO), Methylene Blue, New Methylene Blue N zinc chloride double salt (NMB), 1,9-Dimethylmethylene Blue Chloride (Sigma-Aldrich—DMMB), Azure A, Azure B, Azure C, methylene violet 3RAX, safranine O, and malachite green, were used. Stock solutions were prepared in water and stored at 4° C. in the dark before use. The concentrations of stock solution were 2 mM.
(§4) When Rose Bengal was used, irradiation was performed with an argon laser at 514 nm. A diode laser with wavelength 670 nm was used for experiments with Methylene Blue and 1,9-Dimethylmethylene Blue Chloride. Diode laser with wavelength 635 nm was used for Toluidine Blue O and New Methylene Blue N. For other dyes either a turnable argon ion pumped dye laser or a 514 nm argon ion laser was used.
(§5) Suspensions of spores or bacteria (10^8/mL, 10^7/mL, 10^6/mL) were incubated with photosensitizers in the dark at room temperature. Incubation time was ranged from 1 min to 24 h and the photosensitizer concentrations varied form 10 μM to 1 mM. The cell suspensions were centrifuged at 20800 g and then washed several times with sterile PBS. The bacterial suspensions were placed on two well (concavities hanging drop) slides (Fisher Scientific) and irradiated with appropriate laser at room temperature. Fluences ranged from 0 to 300 J/cm^2. Fluence rates varied from 0 to 500 mW/cm^2. During irradiation aliquots of 20 μL were taken to determine the colony-forming units. The contents of the wells were mixed before sampling. The aliquots were serially diluted 10-fold in PBS to give dilutions of 10^−1-10^−6 times the original concentrations and were streaked horizontally on square BHI agar plates as described by (Jett et al., 1997). Plates were incubated at 37° C. overnight.
(§6) Two types of control conditions were used: irradiation in the absence of photosensitizers and incubation with photosensitizers in the dark.

B. thuringiensis spores = assay: Photodynamic inactivation (PDI) of B. thuringiensis spores, colony-forming units; assay type: cell-based, B. thuringiensis (ATCC 33740); conditions: 100 μM, 1 hour, 100 mW/cm^2 appropriate wavelength light, 0 to 32 J/cm^2 (FIG. 9, FIG. 10)
Description: as §1, §2, §3, §4, §5, §6

B. subtilis spores = assay: Photodynamic inactivation (PDI) of B. subtilis spores, colony-forming units; assay type: cell-based, B. subtilis (ATCC 6051); conditions: needs ten times the dye and six times the light of B. cereus and B. thuringiensis; 100 mW/cm^2 635-nm light (FIG. 3)
Description: as §1
as §2, with “Lysozyme was removed by centrifuging 8 times (at 1300 g) and washing with sterile deionized water. Spores were frozen with 10% glycerol and stored until use. To avoid germination spores were used immediately after defrosting.” left out

[1] = system: B. cereus vegetative cells; assay: Photoinactivation of B. cereus vegetative cells; assay type: cell-based, B. cereus (ATCC14579); conditions: 10(7)/mL, 3 hours at 37° C., 100 mW/cm^2 635-nm light (FIG. 13)
Description: as §1
as §5, with “overnight. […]” for “overnight.”

[2] = system: B. subtilis vegetative cells; assay: Photoinactivation of B. subtilis vegetative cells; assay type: cell-based, B. subtilis (ATCC 6051); conditions: 10(7)/mL, 3 hours at 37° C., 100 mW/cm^2 635-nm light (FIG. 13)
Description: as §1
as §5, with “overnight. […]” for “overnight.”

Compound: CNc1ccc2nc3ccc(=[N+](C)C)cc-3sc2c1.[Cl-] [Azure B]
- photodynamic killing of spores (B. cereus spores; 100 μM, 1 hour): effective
- photodynamic killing of spores (B. thuringiensis spores): effective

Compound: CNc1ccc2nc3ccc(N)cc3[s+]c2c1.[Cl-] [Azure C]
- rank of potency among the dyes of FIG. 5 (B. cereus spores; 100 μM, 1 hour, 100 mW/cm^2 (FIG. 5)): most potent
- photodynamic killing of spores (B. cereus spores; 100 μM, 1 hour): effective
- photodynamic killing of spores (B. thuringiensis spores): effective

Compound: New Methylene Blue N zinc chloride double salt [NMB]
- photodynamic killing of spores (B. cereus spores; 100 μM, 1 hour): effective
- photodynamic killing of spores (B. thuringiensis spores): effective

Compound: CN(C)c1ccc2nc3ccc(=[N+](C)C)cc-3sc2c1 [methylene blue, Methylene Blue]
- photodynamic killing of spores (B. cereus spores; 100 μM, 1 hour): effective

Compound: Cc1cc2nc3ccc(N(C)C)cc3[s+]c2cc1N.[Cl-] [TBO, Toluidine Blue O]
- killing of spores as a function of concentration and light fluence (B. cereus spores; 10 μM, 100 μM or 1 mM, 10 minutes, 100 mW/cm^2 635-nm light (FIG. 2)): improved, depending on both TBO concentration and light fluence
- most effective incubation period (B. cereus spores; 50 μM TBO (FIG. 6)): ≥ 3 h
- effect of incubation time on effectiveness of killing (B. cereus spores; 50 μM TBO, 1 minute to 24 hours incubation (FIG. 6)): effectiveness of killing increases with increasing incubation time
- spores killed (B. cereus spores; 100 μM, 10 minutes incubation, 100 mW/cm^2 635-nm light (FIG. 1)): greater than 99.9%
- killing of spores at the first lowest light dose tested (B. cereus spores; 1 mM dose, 10 minutes, 100 mW/cm^2 635-nm light (FIG. 2)): complete killing
- dark toxicity to spores (B. cereus spores; 1 mM dose, 10 minutes, no light (FIG. 2)): significant dark toxicity
- photodynamic killing of spores (B. thuringiensis spores): effective
- killing of spores (B. subtilis spores): more than 99.9%
- sensitivity of vegetative cells to PDI [1]: sensitive to PDI
- sensitivity of vegetative cells to PDI [2]: sensitive to PDI

Compound: CCN(CC)c1ccc2nc3ccc(N)cc3[n+](-c3ccccc3)c2c1.[Cl-] [methylene violet 3RAX]
- photodynamic killing of spores (B. cereus spores; 100 μM, 1 hour): effective

Compound: Cc1cc(N(C)C)cc2[s+]c3cc(N(C)C)cc(C)c3nc12.[Cl-] [DMMB, 1,9-Dimethylmethylene Blue Chloride]
- effect of incubation time on effectiveness of killing (B. cereus spores; 50 μM DMMB, 1 minute to 24 hours incubation, 670 nm light (FIG. 7)): effectiveness of killing increases with increasing incubation time
- killing of spores in PDI (B. cereus spores; DMMB, 670 nm light (FIG. 7)): effective
- photodynamic killing of spores (B. thuringiensis spores): effective

Compound: Cc1cc2nc3cc(C)c(N)cc3[n+](-c3ccccc3)c2cc1N.[Cl-] [safranin O, safranine O]
- photodynamic killing of spores (B. cereus spores; 100 μM, 1 hour): effective

Compound: CN(C)c1ccc2nc3ccc(N)cc3[s+]c2c1.[Cl-] [Azure A]
- photodynamic killing of spores (B. cereus spores; 100 μM, 1 hour): effective
- photodynamic killing of spores (B. thuringiensis spores): effective

Compound: CN(C)c1ccc(C(=C2C=CC(=[N+](C)C)C=C2)c2ccccc2)cc1 [malachite green]
- photodynamic killing of spores (B. cereus spores; 100 μM, 1 hour): effective
